Laboratory results from ChEMBL document CHEMBL3991601, “The target landscape of clinical kinase drugs” (Science, 2017).
Activity calls are given as the source filed them.

Experiments:
[1] = molecular target: Bone morphogenetic protein receptor type-1A (Homo sapiens, UniProt P36894)
[2] = molecular target: G protein-coupled receptor kinase 6 (Homo sapiens, UniProt P43250)
[3] = molecular target: T1, Dynamin-like GTPase OPA1, mitochondrial (Homo sapiens, UniProt O60313)
T1 sequence (O60313 whole entry): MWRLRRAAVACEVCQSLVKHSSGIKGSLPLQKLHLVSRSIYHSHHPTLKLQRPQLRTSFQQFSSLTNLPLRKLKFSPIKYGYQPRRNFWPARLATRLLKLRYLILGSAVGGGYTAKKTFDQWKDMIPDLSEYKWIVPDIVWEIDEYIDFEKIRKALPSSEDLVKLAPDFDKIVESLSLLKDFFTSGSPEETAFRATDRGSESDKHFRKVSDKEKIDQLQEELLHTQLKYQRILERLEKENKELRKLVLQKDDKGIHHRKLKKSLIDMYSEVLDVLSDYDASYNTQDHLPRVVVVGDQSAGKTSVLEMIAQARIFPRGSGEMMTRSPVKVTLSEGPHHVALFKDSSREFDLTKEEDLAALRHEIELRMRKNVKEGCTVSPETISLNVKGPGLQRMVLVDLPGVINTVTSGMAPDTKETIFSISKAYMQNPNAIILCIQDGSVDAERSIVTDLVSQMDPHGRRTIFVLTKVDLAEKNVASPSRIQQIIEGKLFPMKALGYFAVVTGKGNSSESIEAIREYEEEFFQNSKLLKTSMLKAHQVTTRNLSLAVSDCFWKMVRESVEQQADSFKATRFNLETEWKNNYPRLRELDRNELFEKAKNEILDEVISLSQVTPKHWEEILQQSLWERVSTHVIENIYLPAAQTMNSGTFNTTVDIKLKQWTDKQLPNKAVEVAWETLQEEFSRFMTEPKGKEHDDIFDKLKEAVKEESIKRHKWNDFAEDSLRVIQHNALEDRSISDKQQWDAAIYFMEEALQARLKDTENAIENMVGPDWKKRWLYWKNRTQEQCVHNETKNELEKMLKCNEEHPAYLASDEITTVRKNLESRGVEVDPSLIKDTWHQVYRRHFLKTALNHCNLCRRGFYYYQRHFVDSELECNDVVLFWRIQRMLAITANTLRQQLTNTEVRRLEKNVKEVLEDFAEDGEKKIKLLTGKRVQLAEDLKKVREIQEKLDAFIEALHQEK

[4] = molecular target: cAMP-dependent protein kinase catalytic subunit beta (Homo sapiens, UniProt P22694)
[5] = molecular target: T2, Serine/threonine-protein kinase D2 (Homo sapiens, UniProt Q9BZL6)
T2 sequence (Q9BZL6 whole entry): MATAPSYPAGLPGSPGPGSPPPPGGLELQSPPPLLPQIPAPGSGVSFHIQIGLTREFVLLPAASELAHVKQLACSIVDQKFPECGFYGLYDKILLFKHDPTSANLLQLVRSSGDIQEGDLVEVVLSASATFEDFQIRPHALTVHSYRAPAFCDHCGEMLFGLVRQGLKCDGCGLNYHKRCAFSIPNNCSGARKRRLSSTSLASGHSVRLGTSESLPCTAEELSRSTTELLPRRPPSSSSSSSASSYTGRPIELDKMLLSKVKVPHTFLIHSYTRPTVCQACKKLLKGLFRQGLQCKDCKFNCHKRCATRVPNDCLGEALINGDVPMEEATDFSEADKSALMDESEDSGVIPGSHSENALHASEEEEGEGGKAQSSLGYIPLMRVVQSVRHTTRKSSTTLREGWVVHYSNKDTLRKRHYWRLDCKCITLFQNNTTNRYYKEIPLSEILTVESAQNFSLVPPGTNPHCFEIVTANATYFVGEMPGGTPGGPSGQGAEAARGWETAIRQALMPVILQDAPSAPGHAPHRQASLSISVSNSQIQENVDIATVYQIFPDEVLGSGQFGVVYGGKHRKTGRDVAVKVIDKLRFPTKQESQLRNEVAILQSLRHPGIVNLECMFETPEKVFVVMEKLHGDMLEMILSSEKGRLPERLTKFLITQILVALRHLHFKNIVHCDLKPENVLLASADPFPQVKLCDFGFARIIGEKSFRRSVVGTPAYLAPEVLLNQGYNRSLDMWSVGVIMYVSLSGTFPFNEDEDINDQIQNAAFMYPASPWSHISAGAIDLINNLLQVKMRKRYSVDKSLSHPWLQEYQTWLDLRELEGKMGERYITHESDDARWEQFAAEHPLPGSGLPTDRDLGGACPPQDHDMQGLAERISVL

[6] = molecular target: T3, Serine/threonine-protein kinase 4 (Homo sapiens, UniProt Q13043)
T3 sequence (Q13043 whole entry): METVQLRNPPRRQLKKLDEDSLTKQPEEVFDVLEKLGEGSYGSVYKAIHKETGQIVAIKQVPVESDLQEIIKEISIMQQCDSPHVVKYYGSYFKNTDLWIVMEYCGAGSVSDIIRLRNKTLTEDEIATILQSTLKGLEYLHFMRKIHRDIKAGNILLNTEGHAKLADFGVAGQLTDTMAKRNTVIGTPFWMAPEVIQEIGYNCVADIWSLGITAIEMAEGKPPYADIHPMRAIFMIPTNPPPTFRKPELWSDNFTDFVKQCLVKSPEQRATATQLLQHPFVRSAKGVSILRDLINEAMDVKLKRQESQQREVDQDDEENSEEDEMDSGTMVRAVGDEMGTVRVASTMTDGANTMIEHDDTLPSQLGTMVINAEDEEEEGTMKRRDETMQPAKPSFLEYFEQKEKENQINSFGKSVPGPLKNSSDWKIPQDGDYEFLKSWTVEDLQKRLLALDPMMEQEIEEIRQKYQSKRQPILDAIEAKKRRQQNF

[7] = molecular target: T4, Succinate--CoA ligase [ADP-forming] subunit beta, mitochondrial (Homo sapiens, UniProt Q9P2R7)
T4 sequence (Q9P2R7 whole entry): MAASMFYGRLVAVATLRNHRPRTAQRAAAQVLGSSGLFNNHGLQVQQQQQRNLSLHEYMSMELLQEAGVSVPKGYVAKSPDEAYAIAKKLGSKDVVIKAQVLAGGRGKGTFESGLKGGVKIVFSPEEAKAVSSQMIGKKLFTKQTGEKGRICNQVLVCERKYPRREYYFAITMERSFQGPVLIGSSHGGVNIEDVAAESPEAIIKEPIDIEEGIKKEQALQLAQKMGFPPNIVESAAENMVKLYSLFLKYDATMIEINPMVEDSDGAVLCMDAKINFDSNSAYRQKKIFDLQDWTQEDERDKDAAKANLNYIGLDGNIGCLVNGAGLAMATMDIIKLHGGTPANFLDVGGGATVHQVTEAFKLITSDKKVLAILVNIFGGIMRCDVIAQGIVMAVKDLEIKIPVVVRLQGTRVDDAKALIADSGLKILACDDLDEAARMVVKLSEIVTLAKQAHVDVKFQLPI
Note: in the data inactive means no Kd found up to 30 µM.

Chain of Bone morphogenetic protein receptor type-1A (P36894 whole entry): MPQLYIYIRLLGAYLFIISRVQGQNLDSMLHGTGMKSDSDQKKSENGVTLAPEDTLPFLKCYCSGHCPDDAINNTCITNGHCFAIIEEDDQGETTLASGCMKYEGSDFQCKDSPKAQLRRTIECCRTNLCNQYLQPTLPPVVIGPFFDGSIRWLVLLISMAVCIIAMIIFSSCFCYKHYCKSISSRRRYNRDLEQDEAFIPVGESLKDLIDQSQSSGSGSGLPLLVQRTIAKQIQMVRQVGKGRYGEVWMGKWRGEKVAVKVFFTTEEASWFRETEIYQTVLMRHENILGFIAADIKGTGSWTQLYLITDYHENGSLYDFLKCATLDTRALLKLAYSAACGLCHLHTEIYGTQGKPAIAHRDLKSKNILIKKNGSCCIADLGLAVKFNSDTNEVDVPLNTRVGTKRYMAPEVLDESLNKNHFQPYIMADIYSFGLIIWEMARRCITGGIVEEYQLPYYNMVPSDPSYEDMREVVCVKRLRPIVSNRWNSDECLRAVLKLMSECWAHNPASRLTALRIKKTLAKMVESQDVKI
Chain of G protein-coupled receptor kinase 6 (P43250 whole entry): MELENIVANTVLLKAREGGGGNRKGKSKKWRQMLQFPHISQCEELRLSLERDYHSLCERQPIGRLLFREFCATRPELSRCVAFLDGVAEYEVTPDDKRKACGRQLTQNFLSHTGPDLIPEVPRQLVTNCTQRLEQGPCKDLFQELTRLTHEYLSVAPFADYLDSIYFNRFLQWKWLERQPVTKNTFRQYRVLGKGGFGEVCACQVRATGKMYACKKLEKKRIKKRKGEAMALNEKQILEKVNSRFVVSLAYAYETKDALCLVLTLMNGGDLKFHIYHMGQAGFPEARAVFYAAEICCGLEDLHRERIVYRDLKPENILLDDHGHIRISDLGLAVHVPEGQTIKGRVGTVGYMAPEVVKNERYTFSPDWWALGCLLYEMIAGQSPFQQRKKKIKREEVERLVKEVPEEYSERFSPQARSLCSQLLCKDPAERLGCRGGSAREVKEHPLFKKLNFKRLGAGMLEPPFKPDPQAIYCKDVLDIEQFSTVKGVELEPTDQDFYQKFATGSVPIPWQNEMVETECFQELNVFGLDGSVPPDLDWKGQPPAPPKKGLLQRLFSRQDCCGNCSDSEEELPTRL

In the case of NC1(c2ccc(-c3nc4ccn5c(=O)[nH]nc5c4cc3-c3ccccc3)cc2)CCC1 [MK-2206], the Kd [1] is reported as > 30 µM (inactive), the Kd [2] is reported as > 30 µM (inactive) and the Kd [3] is reported as > 30 µM (inactive). For the same compound, the Kd [4] was > 30 µM (inactive), the Kd [5] was > 30 µM (inactive) and the Kd [6] was > 30 µM (inactive). The Kd [7] was > 30 µM (inactive).

Cn1cc(-c2cnc3ccc4ccc(CS(=O)(=O)NCc5ccccn5)cc4c(=O)c3c2)cn1 [MK-8033] was tested, and the Kd [1] was > 30 µM (inactive), the Kd [2] was > 30 µM (inactive) and the Kd [3] was > 30 µM (inactive). The Kd [4] was > 30 µM (inactive), the Kd [5] was > 30 µM (inactive) and the Kd [6] was > 30 µM (inactive). The Kd [7] was > 30 µM (inactive).

FC(F)(F)c1ccc(/C=C/c2nc(COc3ccc(CCCCn4ccnn4)cc3)co2)cc1 [MUBRITINIB] was tested, and the Kd [1] was > 30 µM (inactive), the Kd [2] was > 30 µM (inactive) and the Kd [3] was > 30 µM (inactive). The Kd [4] was > 30 µM (inactive), the Kd [5] was > 30 µM (inactive) and the Kd [6] was > 30 µM (inactive). The Kd [7] was > 30 µM (inactive).

For COc1ncc(-c2ccc3nccc(-c4ccnnc4)c3c2)cc1NS(=O)(=O)c1ccc(F)cc1F [OMIPALISIB], the Kd [1] was > 30 µM (inactive), the Kd [2] was > 30 µM (inactive) and the Kd [3] was > 30 µM (inactive). For the same compound, the Kd [4] was > 30 µM (inactive), the Kd [5] was > 30 µM (inactive) and the Kd [6] was > 30 µM (inactive). For the same compound, the Kd [7] was > 30 µM (inactive).

N#CC1(c2ccc(NC(=O)c3cccnc3NCc3ccncc3)cc2)CCCC1 [RIVOCERANIB] was tested, and the Kd [1] was > 30 µM (inactive), the Kd [2] was > 30 µM (inactive) and the Kd [3] was > 30 µM (inactive). For the same compound, the Kd [4] was > 30 µM (inactive), the Kd [5] was > 30 µM (inactive) and the Kd [6] was > 30 µM (inactive). The Kd [7] was > 30 µM (inactive).

In the case of Cn1cc(-c2cnn3c(N)c(Br)c([C@@H]4CCCNC4)nc23)cn1 [SCH-900776], the Kd [1] is reported as > 30 µM (inactive), the Kd [2] is reported as > 30 µM (inactive) and the Kd [3] is reported as > 30 µM (inactive). The Kd [4] was > 30 µM (inactive), the Kd [5] was 6.41 µM (active) and the Kd [6] was > 30 µM (inactive). For the same compound, the Kd [7] was > 30 µM (inactive).

In the case of CO[C@H]1C[C@@H]2CC[C@@H](C)[C@@](O)(O2)C(=O)C(=O)N2CCCC[C@H]2C(=O)O[C@H]([C@H](C)C[C@@H]2CC[C@@H](O)[C@H](OC)C2)CC(=O)[C@H](C)/C=C(\C)[C@@H](O)[C@@H](OC)C(=O)[C@H](C)C[C@H](C)/C=C/C=C/C=C/1C [SIROLIMUS], the Kd [1] is reported as > 30 µM (inactive), the Kd [2] is reported as > 30 µM (inactive) and the Kd [3] is reported as > 30 µM (inactive). The Kd [4] was > 30 µM (inactive), the Kd [5] was > 30 µM (inactive) and the Kd [6] was > 30 µM (inactive). The Kd [7] was > 30 µM (inactive).

For CO[C@H]1C[C@@H]2CC[C@@H](C)[C@@](O)(O2)C(=O)C(=O)N2CCCC[C@H]2C(=O)O[C@H]([C@H](C)C[C@@H]2CC[C@@H](OC(=O)C(C)(CO)CO)[C@H](OC)C2)CC(=O)[C@H](C)/C=C(\C)[C@@H](O)[C@@H](OC)C(=O)[C@H](C)C[C@H](C)/C=C/C=C/C=C/1C [TEMSIROLIMUS], the Kd [1] was > 30 µM (inactive), the Kd [2] was > 30 µM (inactive) and the Kd [3] was > 30 µM (inactive). The Kd [4] was > 30 µM (inactive), the Kd [5] was > 30 µM (inactive) and the Kd [6] was > 30 µM (inactive). For the same compound, the Kd [7] was > 30 µM (inactive).

With COc1cc2c(Nc3ccc(Cl)c(Cl)c3F)ncnc2cc1OC[C@@H]1C[C@@H]2CN(C)C[C@@H]2C1 [TESEVATINIB] the Kd [1] was > 30 µM (inactive), the Kd [2] was > 30 µM (inactive) and the Kd [3] was > 30 µM (inactive). The Kd [4] was > 30 µM (inactive), the Kd [5] was > 30 µM (inactive) and the Kd [6] was > 30 µM (inactive). For the same compound, the Kd [7] was > 30 µM (inactive).

O=C(Cc1ccc(-c2ccc(OCCN3CCOCC3)cc2)cn1)NCc1ccccc1 [TIRBANIBULIN] was tested, and the Kd [1] was > 30 µM (inactive), the Kd [2] was > 30 µM (inactive) and the Kd [3] was > 30 µM (inactive). For the same compound, the Kd [4] was > 30 µM (inactive), the Kd [5] was > 30 µM (inactive) and the Kd [6] was > 30 µM (inactive). The Kd [7] was > 30 µM (inactive).

With O=C1NC(=O)[C@@H](c2cn3c4c(cccc24)CCC3)[C@@H]1c1c[nH]c2ccccc12 [TIVANTINIB] the Kd [1] was > 30 µM (inactive), the Kd [2] was > 30 µM (inactive) and the Kd [3] was 0.017 µM. For the same compound, the Kd [4] was > 30 µM (inactive), the Kd [5] was > 30 µM (inactive) and the Kd [6] was > 30 µM (inactive). The Kd [7] was > 30 µM (inactive).

For Cc1cc(Nc2ncnc3ccc(NC4=NC(C)(C)CO4)cc23)ccc1Oc1ccn2ncnc2c1 [TUCATINIB], the Kd [1] was > 30 µM (inactive), the Kd [2] was > 30 µM (inactive) and the Kd [3] was > 30 µM (inactive). The Kd [4] was > 30 µM (inactive), the Kd [5] was > 30 µM (inactive) and the Kd [6] was > 30 µM (inactive). The Kd [7] was > 30 µM (inactive).

In the case of C[C@@H](N)c1ccc(C(=O)Nc2ccnc3[nH]ccc23)cc1 [Y-39983], the Kd [1] is reported as 0.34 µM, the Kd [2] is reported as > 30 µM (inactive) and the Kd [3] is reported as > 30 µM (inactive). The Kd [4] was > 30 µM (inactive), the Kd [5] was 0.572 µM (active) and the Kd [6] was > 30 µM (inactive). The Kd [7] was > 30 µM (inactive).

With CN1C/C=C/CCOc2cccc(c2)-c2ccnc(n2)Nc2cccc(c2)C1 [ZOTIRACICLIB] the Kd [1] was > 30 µM (inactive), the Kd [2] was > 30 µM (inactive) and the Kd [3] was > 30 µM (inactive). The Kd [4] was > 30 µM (inactive), the Kd [5] was 0.474 µM (active) and the Kd [6] was 1.8 µM (active). The Kd [7] was > 30 µM (inactive).
